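The concentration for 50% growth inhibition is given as GI50. TGI marks complete inhibition of growth.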
Experiments:
Assay in all cases: DTP human tumour cell line panel, 384-well format
786-0 renal = test system: 786-0 renal
A498 renal = test system: A498 renal
A549 NSCLC = test system: A549 NSCLC
ACHN renal = test system: ACHN renal
BT-549 breast = test system: BT-549 breast
CAKI-1 renal = test system: CAKI-1 renal
CCRF-CEM leukemia = test system: CCRF-CEM leukemia
COLO 205 colon = test system: COLO 205 colon
DU-145 prostate = test system: DU-145 prostate
EKVX NSCLC = test system: EKVX NSCLC
HCC-2998 colon = test system: HCC-2998 colon
HCT-116 colon = test system: HCT-116 colon
HCT-15 colon = test system: HCT-15 colon
HL-60(TB) leukemia = test system: HL-60(TB) leukemia
HOP-62 NSCLC = test system: HOP-62 NSCLC
HOP-92 NSCLC = test system: HOP-92 NSCLC
HS 578T breast = test system: HS 578T breast
HT29 colon = test system: HT29 colon
IGROV1 ovarian = test system: IGROV1 ovarian
K-562 leukemia = test system: K-562 leukemia
KM12 colon = test system: KM12 colon
LOX IMVI melanoma = test system: LOX IMVI melanoma
M14 melanoma = test system: M14 melanoma
MALME-3M melanoma = test system: MALME-3M melanoma
MCF7 breast = test system: MCF7 breast
MDA-MB-231 breast = test system: MDA-MB-231 breast
MDA-MB-435 melanoma = test system: MDA-MB-435 melanoma
MDA-MB-468 breast = test system: MDA-MB-468 breast
MOLT-4 leukemia = test system: MOLT-4 leukemia
NCI-H226 lung = test system: NCI-H226 lung
NCI-H23 lung = test system: NCI-H23 lung
NCI-H322M lung = test system: NCI-H322M lung
NCI-H460 NSCLC = test system: NCI-H460 NSCLC
NCI-H522 lung = test system: NCI-H522 lung
NCI/ADR-RES ovarian = test system: NCI/ADR-RES ovarian
OVCAR-3 ovarian = test system: OVCAR-3 ovarian
OVCAR-4 ovarian = test system: OVCAR-4 ovarian
OVCAR-8 ovarian = test system: OVCAR-8 ovarian
PC-3 prostate = test system: PC-3 prostate
RPMI-8226 leukemia = test system: RPMI-8226 leukemia
RXF 393 renal = test system: RXF 393 renal
SF-268 CNS = test system: SF-268 CNS
SF-295 CNS = test system: SF-295 CNS
SF-539 CNS = test system: SF-539 CNS
SK-MEL-28 melanoma = test system: SK-MEL-28 melanoma
SK-MEL-5 melanoma = test system: SK-MEL-5 melanoma
SK-OV-3 ovarian = test system: SK-OV-3 ovarian
SN12C renal = test system: SN12C renal
SNB-19 CNS = test system: SNB-19 CNS
SNB-75 CNS = test system: SNB-75 CNS
SR leukemia = test system: SR leukemia
SW-620 colon = test system: SW-620 colon
T-47D breast = test system: T-47D breast
TK-10 renal = test system: TK-10 renal
U251 glioblastoma = test system: U251 glioblastoma
UACC-257 melanoma = test system: UACC-257 melanoma
UACC-62 melanoma = test system: UACC-62 melanoma
UO-31 renal = test system: UO-31 renal

With `Cn1ncc(NC(=O)c2nc(-c3c(F)cccc3F)sc2N)c1N1CC[C@@H](N)[C@H](F)CC1` the GI50 ([…]-0 renal) was 4.22 µM, the TGI (786-0 renal) was 14.8 µM and the GI50 (A498 renal) was 3.02 µM. It also gave a TGI (A498 renal) of 13.7 µM, a GI50 (A549 NSCLC) of 4.22 µM and a TGI (A549 NSCLC) of 15.7 µM. For the same compound, the GI50 (ACHN renal) was 3.25 µM, the TGI (ACHN renal) was 15.6 µM and the GI50 (BT-549 breast) was 1.72 µM. It also gave a TGI (BT-549 breast) of 5.44 µM, a GI50 (CAKI-1 renal) of 1.16 µM and a TGI (CAKI-1 renal) of 4.92 µM. It also gave a GI50 (CCRF-CEM leukemia) of 1.48 µM, a TGI (CCRF-CEM leukemia) of 3.11 µM and a GI50 (COLO 205 colon) of 5.42 µM. The TGI (COLO 205 colon) was 19 µM, the GI50 (DU-145 prostate) was 4.19 µM and the TGI (DU-145 prostate) was 15.7 µM. For the same compound, the GI50 (EKVX NSCLC) was 3.8 µM, the TGI (EKVX NSCLC) was 17.5 µM and the GI50 (HCC-2998 colon) was 8.83 µM. It also gave a TGI (HCC-2998 colon) of 21.2 µM, a GI50 (HCT-116 colon) of 4.01 µM and a TGI (HCT-116 colon) of 15.6 µM. It also gave a GI50 (HCT-15 colon) of 5.03 µM, a TGI (HCT-15 colon) of 17.5 µM and a GI50 (HL-60(TB) leukemia) of 1.51 µM. For the same compound, the TGI (HL-60(TB) leukemia) was 2.91 µM, the GI50 (HOP-62 NSCLC) was 5.55 µM and the TGI (HOP-62 NSCLC) was 18.3 µM. The GI50 (HOP-92 NSCLC) was 3.18 µM, the TGI (HOP-92 NSCLC) was 13 µM and the GI50 (HS 578T breast) was 2.83 µM. For the same compound, the TGI (HS 578T breast) was 5.52 µM, the GI50 (HT29 colon) was 7.09 µM and the TGI (HT29 colon) was 19.9 µM. It also gave a GI50 (IGROV1 ovarian) of 3.69 µM, a TGI (IGROV1 ovarian) of 13.7 µM and a GI50 (K-562 leukemia) of 2.19 µM. It also gave a TGI (K-562 leukemia) of 10.6 µM, a GI50 (KM12 colon) of 6.59 µM and a TGI (KM12 colon) of 19.3 µM. The GI50 (LOX IMVI melanoma) was 4.33 µM, the TGI (LOX IMVI melanoma) was 14.5 µM and the GI50 (M14 melanoma) was 2.44 µM. The TGI (M14 melanoma) was 14.3 µM, the GI50 (MALME-3M melanoma) was 2.58 µM and the TGI (MALME-3M melanoma) was 12.7 µM. For the same compound, the GI50 (MCF7 breast) was 2.82 µM, the TGI (MCF7 breast) was 10.9 µM and the GI50 (MDA-MB-231 breast) was 4.31 µM. For the same compound, the TGI (MDA-MB-231 breast) was 16 µM, the GI50 (MDA-MB-435 melanoma) was 3.2 µM and the TGI (MDA-MB-435 melanoma) was 15.4 µM. The GI50 (MDA-MB-468 breast) was 2.8 µM, the TGI (MDA-MB-468 breast) was 11.6 µM and the GI50 (MOLT-4 leukemia) was 1.61 µM. For the same compound, the TGI (MOLT-4 leukemia) was 2.98 µM, the GI50 (NCI-H226 lung) was 2.22 µM and the TGI (NCI-H226 lung) was 9.62 µM. The GI50 (NCI-H23 lung) was 10.9 µM, the TGI (NCI-H23 lung) was 23 µM and the GI50 (NCI-H322M lung) was 6.85 µM. The TGI (NCI-H322M lung) was 21.3 µM, the GI50 (NCI-H460 NSCLC) was 3.49 µM and the TGI (NCI-H460 NSCLC) was 12.6 µM. For the same compound, the GI50 (NCI-H522 lung) was 2.49 µM, the TGI (NCI-H522 lung) was 9.18 µM and the GI50 (NCI/ADR-RES ovarian) was 16.5 µM. It also gave a TGI (NCI/ADR-RES ovarian) of 33.2 µM, a GI50 (OVCAR-3 ovarian) of 3.89 µM and a TGI (OVCAR-3 ovarian) of 14.9 µM. It also gave a GI50 (OVCAR-4 ovarian) of 18.9 µM, a TGI (OVCAR-4 ovarian) of 34.2 µM and a GI50 (OVCAR-8 ovarian) of 7.11 µM. The TGI (OVCAR-8 ovarian) was 19.7 µM, the GI50 (PC-3 prostate) was 3.23 µM and the TGI (PC-3 prostate) was 12.9 µM. The GI50 (RPMI-8226 leukemia) was 0.0454 µM, the TGI (RPMI-8226 leukemia) was 4.12 µM and the GI50 (RXF 393 renal) was 3.15 µM. For the same compound, the TGI (RXF 393 renal) was 13.1 µM, the GI50 (SF-268 CNS) was 3.47 µM and the TGI (SF-268 CNS) was 14.2 µM. The GI50 (SF-295 CNS) was 5.52 µM, the TGI (SF-295 CNS) was 17.8 µM and the GI50 (SF-539 CNS) was 3.21 µM. It also gave a TGI (SF-539 CNS) of 13.3 µM, a GI50 (SK-MEL-28 melanoma) of 10.4 µM and a TGI (SK-MEL-28 melanoma) of 22.2 µM. It also gave a GI50 (SK-MEL-5 melanoma) of 1.35 µM, a TGI (SK-MEL-5 melanoma) of 12.2 µM and a GI50 (SK-OV-3 ovarian) of 1.83 µM. It also gave a TGI (SK-OV-3 ovarian) of 9.95 µM, a GI50 (SN12C renal) of 2.55 µM and a TGI (SN12C renal) of 11.1 µM. The GI50 (SNB-19 CNS) was 12.1 µM, the TGI (SNB-19 CNS) was 26.1 µM and the GI50 (SNB-75 CNS) was 2.93 µM. For the same compound, the TGI (SNB-75 CNS) was 10.8 µM, the GI50 (SR leukemia) was 0.0471 µM and the TGI (SR leukemia) was 0.602 µM. It also gave a GI50 (SW-620 colon) of 3.29 µM, a TGI (SW-620 colon) of 12.2 µM and a GI50 (T-47D breast) of 15.3 µM. The TGI (T-47D breast) was 30 µM, the GI50 (TK-10 renal) was 2.88 µM and the TGI (TK-10 renal) was 15.4 µM. It also gave a GI50 (U251 glioblastoma) of 6.23 µM, a TGI (U251 glioblastoma) of 18.7 µM and a GI50 (UACC-257 melanoma) of 7.52 µM. It also gave a TGI (UACC-257 melanoma) of 20 µM, a GI50 (UACC-62 melanoma) of 3.34 µM and a TGI (UACC-62 melanoma) of 11.7 µM. It also gave a GI50 (UO-31 renal) of 1.96 µM and a TGI (UO-31 renal) of 5.94 µM.

Reference: PubChem BioAssay (NCI)
